{"source": "patent US20170216297A1", "about": "“EFFICIENT INHIBITION OF HSP27” (TECHNISCHE UNIVERSITAET DRESDEN, priority 2014, published 2017)", "key": {"HSP27": {"biological_target": "HSP27 (Homo sapiens, UniProt P04792)", "sequence (P04792 whole entry)": "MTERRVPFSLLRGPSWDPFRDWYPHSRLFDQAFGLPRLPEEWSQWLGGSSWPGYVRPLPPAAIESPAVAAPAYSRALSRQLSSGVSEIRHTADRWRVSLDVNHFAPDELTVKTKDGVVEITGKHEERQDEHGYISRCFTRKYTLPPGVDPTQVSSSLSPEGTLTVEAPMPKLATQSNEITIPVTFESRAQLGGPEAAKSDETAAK", "assay": "SpeedScreen gel filtration binding test (Sephadex G-25, detection by mass spectroscopy)", "description": "For the experimental validation of low-molecular-weight compounds which act as potential HSP27 inhibitors according to the in silico prediction, a method based on gel filtration was employed. The method for detecting molecular bonds using gel filtration was described in 2004 as “SpeedScreen” [Muckenschnabel et al., 2004] and was adapted to meet the requirements of the invention. […] For the separation, PD SpinTraps G-25 from GE Healthcare were used. During the 2-minute centrifugation at 800×g (according to operating instructions), these columns allow molecules with a molecular weight of greater than or equal to 5000 g/mol to pass through, while smaller molecules are retained in the matrix. The target protein HSP27 has a molecular weight of 27000 g/mol and therefore passes through the matrix. […] Non-bound low-molecular-weight compounds are retained by the matrix. Molecules that have passed through the matrix can then be detected by mass spectroscopy. This enables “binders” to be differentiated from “non-binders”. For the experimental validation of low-molecular-weight compounds which act as potential HSP27 inhibitors according to the in silico prediction, a method based on gel filtration was employed. […] Molecules that have passed through the matrix can then be detected by mass spectroscopy. […]"}, "U937 cells": {"tested_on": "U937 cells", "assay": "Development of resistance to bortezomib in U937 cells", "type": "cell-based", "protocol": "For this purpose, U937 cells (histiocytic lymphoma) were cultured in DMEM culture medium (+10% FCS) at 37° C., 5% CO2 in an H2O-saturated atmosphere. 100,000 cells/ml were seeded and incubated with the cytostatic agent bortezomib (0.1 ng/ml) and the respective test substance (dosage in the current experiment: 1 μM/L acepromazine). The reference substance, BVDU, was employed at a concentration of 30 μM/L. The cells were in each case passaged before the cell count reached 1,000,000 cells/ml. At each passage, 100,000 cells/ml were again seeded and the dose of the cytostatic agent bortezomib was increased stepwise (0.1 ng/mL or 0.05 ng/mL). The concentration of the test substances remained constant. As a result of the stepwise increase in the dosage of the cytostatic agent, resistance developed in the U937 cells. The development of resistance is prevented or inhibited in the case of a positively tested HSP27 inhibitor. The experiments from Example 6 were repeated in the same way, wherein U937 cells (histiocytic lymphoma) are cultured in DMEM culture medium (+10% FCS) at 37° C., 5% CO2 in an H2O— saturated atmosphere. 100,000 cells/ml were seeded and incubated with an initial concentration of 0.2 ng/ml of the cytostatic agent bortezomib and both without an inhibitor and with acepromazine as an HSP27 inhibitor at a concentration of 1 μM/L. The reference substance, BVDU, was employed at a concentration of 30 μM/L. The cells were passaged in each case before the cell count reached 1,000,000 cells/ml. At each passage, 100,000 cells/ml were again seeded and the dose of the cytostatic agent bortezomib was increased stepwise by 0.1 ng/mL. The concentration of the test substance and the reference substance remained constant. As a result of the stepwise increase in the dosage of the cytostatic agent, resistance developed in the U937 cells. The development of resistance is prevented or inhibited in the case of a positively tested HSP27 inhibitor. The cell line U-937 is a histiocytic lymphoma (DSMZ ACC 5). This cell line also responds to treatment with bortezomib, expresses HSP27 and develops resistance to bortezomib. Bortezomib is not the standard therapy for this lymphoma, but is being discussed as a possible therapeutic agent. U-937 cells were seeded with a cell count of 100,000 cells/ml in each case and regularly passaged. […] At the end of the experiment, 70,000 living cells per ml medium could be detected. For the treatment with 30 μmol/L BVDU, a final cell count of 250,000 cells/ml was detected whereas the final cell count in the culture without the addition of an HSP27 inhibitor amounted to 450,000 cells/ml. As a control, U-937 cells were treated with the respective test substances alone, FIG. 10b."}, "RPMI-8226 cells": {"tested_on": "RPMI-8226 cells", "assay": "Development of resistance to bortezomib in RPMI-8226 cells", "type": "cell-based", "conditions": "bortezomib 0.2-0.4 ng/ml, plus 0.75 μmol/L inhibitor", "protocol": "The cell line RPMI-8226 (DMSZ 402) is a “multiple myeloma” cell line and was chosen because bortezomib is employed as a standard therapy for multiple myeloma. RPMI-8226 cells respond to bortezomib, express HSP27 and develop resistance to Velcade. RPMI-8226 cells were seeded at a cell count of 100,000 cells/ml in each case and regularly passaged. […] In contrast, for RPMI 8226 cells that were treated with 30 μmol/L BVDU, a final cell count of 160,000 cells/ml was detected whereas the final cell count for the culture without the addition of an HSP27 inhibitor amounted to 350,000 cells/ml. As a control, RPMI 8226 cells were treated with the respective test substances alone, FIG. 4b."}}}
{"smiles": "CC(=O)c1ccc2c(c1)N(CCCN(C)C)c1ccccc1S2", "note": "[Acepromazine]", "values": [{"measurement": "Binding to HSP27 by SpeedScreen (passage through the Sephadex G-25 matrix)", "setting": "HSP27", "value": "tested positively"}, {"measurement": "living cells after the end of the experiment", "setting": "U937 cells; Example 6, FIG. 2: bortezomib 0.1 to 0.5 ng/ml stepwise, +1 μM inhibitor, without inhibitor 790,000 cells/ml", "value": "no living cells were detectable"}, {"measurement": "development of resistance to bortezomib", "setting": "U937 cells; Example 6, FIG. 2: bortezomib 0.1 to 0.5 ng/ml, +1 μM inhibitor", "value": "no development of resistance occurred"}, {"measurement": "living cells after the end of the experiment", "setting": "U937 cells; Example 7, FIG. 3: bortezomib 0.2 to 0.4 ng/ml stepwise, +1 μM inhibitor, without inhibitor 230,000 cells/ml", "value": "no living cells were detectable"}, {"measurement": "development of resistance to bortezomib", "setting": "U937 cells; Example 7, FIG. 3: bortezomib 0.2 to 0.4 ng/ml, +1 μM inhibitor", "value": "no development of resistance occurred"}, {"measurement": "development of resistance to bortezomib", "setting": "U937 cells; Examples 17/18: bortezomib 0.1-0.5 ng/ml, plus 0.75 μmol/L inhibitor", "value": "significantly inhibited"}, {"measurement": "development of resistance to bortezomib", "setting": "RPMI-8226 cells", "value": "significantly inhibited"}]}
